Test results published in patent publication US6713477B1, “Hydroxamic acid derivatives” (Sumitomo Pharmaceuticals Company, Limited, priority 2000, dated 2004).

Columns and labels:
MMP-9 = molecular target: T1, MMP-9 (Homo sapiens, UniProt P14780); assay: Inhibition assay against MMP-9 (fluorescent MCA-labeled substrate); format: biochemical; details: active MMP at 20 nM, 37° C., 1.5 hours
T1 construct: Both enzymes were commercially available as active forms (Yagai-Cosmobio); purchased Yagai-Cosmobio
T1 sequence (P14780 107-707 limits assumed, species assumed): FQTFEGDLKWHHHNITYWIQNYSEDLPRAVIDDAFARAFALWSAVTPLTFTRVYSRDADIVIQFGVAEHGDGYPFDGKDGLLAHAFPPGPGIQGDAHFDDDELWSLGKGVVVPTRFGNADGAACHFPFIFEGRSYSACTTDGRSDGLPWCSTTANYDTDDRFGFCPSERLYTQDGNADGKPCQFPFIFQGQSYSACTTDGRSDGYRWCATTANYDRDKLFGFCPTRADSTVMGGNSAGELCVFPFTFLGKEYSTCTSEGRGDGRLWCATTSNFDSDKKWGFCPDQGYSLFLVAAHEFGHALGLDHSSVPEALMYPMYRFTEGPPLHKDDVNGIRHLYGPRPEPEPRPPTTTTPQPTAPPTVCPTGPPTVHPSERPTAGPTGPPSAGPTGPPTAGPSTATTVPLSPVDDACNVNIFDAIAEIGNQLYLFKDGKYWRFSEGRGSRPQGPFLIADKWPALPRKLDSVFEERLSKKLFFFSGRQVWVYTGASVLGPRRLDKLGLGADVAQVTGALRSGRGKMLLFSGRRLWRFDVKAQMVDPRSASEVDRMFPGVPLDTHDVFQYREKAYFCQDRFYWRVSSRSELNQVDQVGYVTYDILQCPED
Method: (§1) Both enzymes were commercially available as active forms (Yagai-Cosmobio) and were used for inhibition assays.
(§2) Enzymatic assays were performed in accordance with C. G. Knight's method (FEBS Lett., 296(3), 263-266 (1992)). The fluorescent MCA-labeled substrate, (7-methoxycumaline-4-yl)-Pro-Leu-Gly-Leu-L-[N-(2,4-dinitrophenyl)-L-2,3-diaminopropionyl]-Ala-Arg-NH2 (Peptide Institute. Inc.) was used for measuring the kinetics of inhibition for each tested compound.
(§3) The substrate was incubated at 37° C. for 1.5 hours (MMP-1; for 24 hours) with active MMP (at 20 nM, except MMP-13 at 5 nM) and a test compound in assay buffer containing 100 mM Tris-HCl (pH7.5), 10 mM CaCl2, 100 MM NaCl and 0.05% Brij-35.

[1] = system: TNF-α release from RAW 267.4; assay: Inhibition ELISA for Tumor Necrosis Factor-α (TNF-α) release, LPS-stimulated RAW 267.4 cells; format: cell-based; details: Mus musculus, RAW267.4, LPS-stimulated RAW 267.4, 24 hours, read-out: Inhibition of TNF production at 5 μM
Method: RAW 267.4 (derived from mouse monocytes) was seeded in RPMI1640 containing 10% of FBS (GIBCO BRL) at 100 μL/well (5×10^5 cells/mL) onto 96-well microplates and cultured at 37° C., 5% CO2. After culturing for 4 hours, each test compound diluted in RPMI1640 was added at 50 μL/well. 15 minutes later, […] LPS (DIFCO) diluted in RPMI1640 was added at 50 μL/well and cultured for 24 hours.
TNF-α produced was measured by ELISA as usual. (For example; J. Cellular Physiol. 154, 479 (1993)) Absorbance at 450 nm (normalized at 620 nm) was measured and percentage of the amount of TNF-α release for each tested compound (n=2) was determined (0% for untreated control (n=4), and 100% for LPS stimulation (n=4)).

MMP-2 = molecular target: T2, MMP-2 (Homo sapiens, UniProt P08253); assay: Inhibition assay against MMP-2 (fluorescent MCA-labeled substrate); format: biochemical; details: active MMP at 20 nM, 37° C., 1.5 hours
T2 construct: Both enzymes were commercially available as active forms (Yagai-Cosmobio); purchased Yagai-Cosmobio
T2 sequence (P08253 110-660): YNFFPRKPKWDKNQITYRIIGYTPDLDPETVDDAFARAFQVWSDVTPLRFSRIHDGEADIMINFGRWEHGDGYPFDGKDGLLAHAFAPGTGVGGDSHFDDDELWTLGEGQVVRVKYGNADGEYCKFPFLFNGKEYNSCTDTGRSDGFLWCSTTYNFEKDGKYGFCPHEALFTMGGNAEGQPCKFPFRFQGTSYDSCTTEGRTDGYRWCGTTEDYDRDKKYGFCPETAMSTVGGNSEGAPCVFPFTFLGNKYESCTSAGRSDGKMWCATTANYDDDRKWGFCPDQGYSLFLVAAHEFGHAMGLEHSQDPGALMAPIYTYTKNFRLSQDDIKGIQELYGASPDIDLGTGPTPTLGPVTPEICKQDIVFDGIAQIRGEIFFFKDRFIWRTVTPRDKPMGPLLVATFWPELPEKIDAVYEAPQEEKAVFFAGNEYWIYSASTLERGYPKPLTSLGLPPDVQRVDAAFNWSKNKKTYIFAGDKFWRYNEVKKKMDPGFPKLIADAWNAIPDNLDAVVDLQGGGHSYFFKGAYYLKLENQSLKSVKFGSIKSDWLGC
Method: as §1, §2, §3

[2] = molecular target: T3, MMP-3 (Matrix Metalloproteinase-3, Stromelysin-1) (Homo sapiens, UniProt P08254); assay: Inhibition assay against MMP-3 (fluorescent MCA-labeled substrate); format: biochemical; details: Table 10; active MMP at 20 nM, 37° C., 1.5 hours; read-out: IC50 MMP3
T3 construct: C-terminal truncated form of human prostromelysin cDNA; made in house; host or cells: E. coli
T3 sequence (P08254 100-272 limits assumed): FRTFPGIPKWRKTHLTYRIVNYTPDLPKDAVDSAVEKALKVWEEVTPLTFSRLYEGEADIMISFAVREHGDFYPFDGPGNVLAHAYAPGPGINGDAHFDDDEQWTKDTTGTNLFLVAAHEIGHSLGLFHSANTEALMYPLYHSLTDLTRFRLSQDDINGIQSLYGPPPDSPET
Method: C-terminal truncated form of human prostromelysin cDNA (proMMP-3, cDNA sequence in Nature, 348, 699-704 (1990)) was subcloned, expressed in E.coli and purified as described previously (Biochemistry 30, 6476-6483 (1991)). Activation of proMMP-3 was achieved by treatment with 1 mM 4-aminophenylmercuric acetate at 37° C. for 60 min.
as §2, §3

[3] = molecular target: T4, MMP-13 (Matrix Metalloproteinase-13, Collagenase-3) (Homo sapiens, UniProt P45452); assay: Inhibition assay against MMP-13 (fluorescent MCA-labeled substrate); format: biochemical; details: Table 10; active MMP-13 at 5 nM, 37° C., 1.5 hours; read-out: IC50 MMP13
T4 construct: made in house; host or cells: E. coli BL21 (DE3), pET11a
Source text: To subclone C-terminal truncated form of procollagenase-3 (proMMP-13) cDNA (J.Biol.Chem., 269(24), 16766-16773 (1994)), two synthetic oligonucleotide primer (5′-[…]-3′ and 5′-[…]-3′: the former incorporates sequences for a unique NdeI site (underlined) including initial methionine, and the latter has sequences for a stop codon and BamHI site (underlined)) were used with human chondrocyte cDNA library (CLONTECH) in PCR. With these primers and Pfu DNA polymerase (STRATAGENE) in PCR, 767 bp fragment was generated, which encodes 84 amino acid prosequence and 164 amino acids of mature MMP-13. The fragment was digested with NdaI and BamHI, ligated into the NdeI and BamHI sites of pET11a (STRATAGENE), transformed in E.coli BL21 (DE3) and cultured. The crude cell extract was prepared as described in Biochemistry. The extract was dialyzed against 20 mM Tris-HCl(pH7.2)/5 mM CaCl2/0.02% NaN3 and applied to a SP-Sepharose HP column (1.6×10 cm, Amersham-Pharmacia Biotech), and elution was performed with 50 mL linear gradient of 0 to 0.3 M NaCl (partially purified proMMP-13 was eluted at 0.2 M approximately). The fraction was dialyzed against 20 mM Tris-HCl(pH7.9)/5 mM CaCl2,/200 mM (NH4)2SO4/0.02% NaN3 and applied to a Phenyl Sepharose HP column (1.6×5 cm, Amersham-Pharmacia Biotech), and elution was performed with 20 mL linear gradient of 0.2 to 0 M (NH4)2SO4 (pure proHMP-13 was eluted at 50 mM approximately). The fraction was concentrated by YM-5 ultrafiltration membrane and activated with 4-aminophenylmercuric acetate and active MMP-13 was separated from propeptide fragments by gel filtration chromatography as described in Biochemistry.
as §2, §3

IC50 (MMP-9)	IC50 (MMP-2)	IC50 [2]	IC50 [3]	SMILES	inhibition at 5 µM [1]
> 1000 nM	–	–	–	COc1ccc(C2SCC(=O)N2[C@@H](CC(C)C)C(=O)NO)cc1 (stereo partly drawn) [Example 21, 3-[(1S)-(N-Hydroxyaminocarbonyl)-3-methylbutyl]-2-(4-methoxyphenyl)-1,3-thiazolidine-4-one]	–
110 nM	320 nM	–	–	COc1ccc(/C=C2\Sc3ccccc3N(CC(=O)NO)C2=O)cc1 [Example 365, 2H-2(Z)-(4-Methoxybenzylidene)-1,4-benzothiazin-3(4H)-one-4-yl-acetic Acid N-Hydroxylamide]	20%
< 10 nM	300 nM	1500 nM	36 nM	O=C(CN1C(=O)/C(=C/c2ccc(Oc3ccccc3)cc2)Sc2ccccc21)NO [Example 368]	30%
200 nM	> 1000 nM	–	–	CCCCOc1ccc(C=C2Sc3ccccc3N(CC(=O)NO)C2=O)cc1 [Example 369]	–
